BindingDB's records for doi:10.1021/jm00006a008 (Glaxo Research Institute, 1995)
pIC50: −log10 of the molar value.

Assay: Inhibitory concentration against topoisomerase I obtained from calf thymus

| SMILES | pIC50 |
| --- | --- |
| CCC1(O)C(=O)OCc2c1cc1n(c2=O)Cc2c-1nc1cc(F)c(F)cc1c2C(=O)O (stereo not drawn) [4-Ethyl-8,9-difluoro-4-hydroxy-3,13-dioxo-3,4,12,13-tetrahydro-1H-2-oxa-6,12a-diaza-dibenzo[b,h]fluorene-11-carboxylic acid] | 5.82 |
| CC[C@]1(O)C(=O)OCc2c1cc1n(c2=O)Cc2c-1nc1ccc(F)cc1c2C(=O)O [(R)-4-Ethyl-9-fluoro-4-hydroxy-3,13-dioxo-3,4,12,13-tetrahydro-1H-2-oxa-6,12a-diaza-dibenzo[b,h]fluorene-11-carboxylic acid] | 5.51 |
| CCC1(O)C(=O)OCc2c1cc1n(c2=O)Cc2c-1nc1ccc(F)cc1c2C(=O)O (stereo not drawn) [4-Ethyl-9-fluoro-4-hydroxy-3,13-dioxo-3,4,12,13-tetrahydro-1H-2-oxa-6,12a-diaza-dibenzo[b,h]fluorene-11-carboxylic acid] | 5.49 |
| CCC1(O)C(=O)OCc2c1cc1n(c2=O)Cc2c-1nc1cccc(I)c1c2C(=O)O (stereo not drawn) [4-Ethyl-4-hydroxy-10-iodo-3,13-dioxo-3,4,12,13-tetrahydro-1H-2-oxa-6,12a-diaza-dibenzo[b,h]fluorene-11-carboxylic acid] | 5.89 |
| CCC1(O)C(=O)OCc2c1cc1n(c2=O)Cc2c-1nc1ccc(I)cc1c2C(=O)O (stereo not drawn) [4-Ethyl-4-hydroxy-9-iodo-3,13-dioxo-3,4,12,13-tetrahydro-1H-2-oxa-6,12a-diaza-dibenzo[b,h]fluorene-11-carboxylic acid] | 5.64 |
| CC[C@@]1(O)C(=O)OCc2c1cc1n(c2=O)Cc2c-1nc1ccc(F)cc1c2C(=O)O [(S)-4-Ethyl-9-fluoro-4-hydroxy-3,13-dioxo-3,4,12,13-tetrahydro-1H-2-oxa-6,12a-diaza-dibenzo[b,h]fluorene-11-carboxylic acid] | < 4.00 |
| CC[C@]1(O)C(=O)OCc2c1cc1n(c2=O)Cc2c-1nc1ccccc1c2C(=O)O [(R)-4-Ethyl-4-hydroxy-3,13-dioxo-3,4,12,13-tetrahydro-1H-2-oxa-6,12a-diaza-dibenzo[b,h]fluorene-11-carboxylic acid] | 5.68 |
| CCC1(O)C(=O)OCc2c1cc1n(c2=O)Cc2c-1nc1cc3c(cc1c2C(=O)O)OCCO3 (stereo not drawn) [8-ethyl-8-hydroxy-9,12-dioxo-2,3,8,9,12,14-hexahydro-11H-[1,4]dioxino[2,3-g]pyrano[3',4':6,7]indolizino[1,2-b]quinoline-15-carboxylic acid] | 4.62 |
| CC[C@]1(O)C(=O)OCc2c1cc1n(c2=O)Cc2c-1nc1ccc(C)cc1c2C(=O)O [(R)-4-Ethyl-4-hydroxy-9-methyl-3,13-dioxo-3,4,12,13-tetrahydro-1H-2-oxa-6,12a-diaza-dibenzo[b,h]fluorene-11-carboxylic acid] | 5.72 |

Assay: Inhibition of bovine topoisomerase I, using cleavable complex assay.

| SMILES | pIC50 |
| --- | --- |
| CCC1(O)C(=O)OCc2c1cc1n(c2=O)C/C(=C2\C(=O)Nc3ccccc32)C1=O (stereo not drawn) [4-Ethyl-4-hydroxy-7-[2-oxo-1,2-dihydro-indol-(3E)-ylidene]-1,4,7,8-tetrahydro-pyrano[3,4-f]indolizine-3,6,10-trione] | 5.24 |
| CCC1(O)C(=O)OCc2c1cc1n(c2=O)C/C(=C2\C(=O)Nc3cc(F)c(F)cc32)C1=O (stereo not drawn) [7-[5,6-Difluoro-2-oxo-1,2-dihydro-indol-(3E)-ylidene]-4-ethyl-4-hydroxy-1,4,7,8-tetrahydro-pyrano[3,4-f]indolizine-3,6,10-trione] | 5.82 |
| CCC1(O)C(=O)OCc2c1cc1n(c2=O)C/C(=C2\C(=O)Nc3ccc(Cl)cc32)C1=O (stereo not drawn) [7-[5-Chloro-2-oxo-1,2-dihydro-indol-(3E)-ylidene]-4-ethyl-4-hydroxy-1,4,7,8-tetrahydro-pyrano[3,4-f]indolizine-3,6,10-trione] | < 4.00 |
| CCC1(O)C(=O)OCc2c1cc1n(c2=O)C/C(=C2\C(=O)Nc3ccc(F)cc32)C1=O (stereo not drawn) [4-Ethyl-7-[5-fluoro-2-oxo-1,2-dihydro-indol-(3E)-ylidene]-4-hydroxy-1,4,7,8-tetrahydro-pyrano[3,4-f]indolizine-3,6,10-trione] | 5.92 |
| CCC1(O)C(=O)OCc2c1cc1n(c2=O)C/C(=C2\C(=O)Nc3ccc(I)cc32)C1=O (stereo not drawn) [4-Ethyl-4-hydroxy-7-[5-iodo-2-oxo-1,2-dihydro-indol-(3E)-ylidene]-1,4,7,8-tetrahydro-pyrano[3,4-f]indolizine-3,6,10-trione] | 4.49 |
| CC[C@]1(O)C(=O)OCc2c1cc1n(c2=O)C/C(=C2\C(=O)Nc3c(C)cccc32)C1=O [(R)-4-Ethyl-4-hydroxy-7-[7-methyl-2-oxo-1,2-dihydro-indol-(3E)-ylidene]-1,4,7,8-tetrahydro-pyrano[3,4-f]indolizine-3,6,10-trione] | < 4.00 |
| CCC1(O)C(=O)OCc2c1cc1n(c2=O)C/C(=C2\C(=O)Nc3c2ccc(F)c3C)C1=O (stereo not drawn) [4-Ethyl-7-[6-fluoro-7-methyl-2-oxo-1,2-dihydro-indol-(3E)-ylidene]-4-hydroxy-1,4,7,8-tetrahydro-pyrano[3,4-f]indolizine-3,6,10-trione] | < 4.00 |
| CC[C@]1(O)C(=O)OCc2c1cc1n(c2=O)C/C(=C2\C(=O)Nc3ccccc32)C1=O [(R)-4-Ethyl-4-hydroxy-7-[2-oxo-1,2-dihydro-indol-(3E)-ylidene]-1,4,7,8-tetrahydro-pyrano[3,4-f]indolizine-3,6,10-trione] | 5.40 |
| CC[C@]1(O)C(=O)OCc2c1cc1n(c2=O)C/C(=C2\C(=O)Nc3ccc(F)cc32)C1=O [(R)-4-Ethyl-7-[5-fluoro-2-oxo-1,2-dihydro-indol-(3E)-ylidene]-4-hydroxy-1,4,7,8-tetrahydro-pyrano[3,4-f]indolizine-3,6,10-trione] | 5.96 |
| CCC1(O)C(=O)OCc2c1cc1n(c2=O)C/C(=C2\C(=O)Nc3cc(OC)ccc32)C1=O (stereo not drawn) [4-Ethyl-4-hydroxy-7-[6-methoxy-2-oxo-1,2-dihydro-indol-(3E)-ylidene]-1,4,7,8-tetrahydro-pyrano[3,4-f]indolizine-3,6,10-trione] | < 4.00 |
| CCC1(O)C(=O)OCc2c1cc1n(c2=O)C/C(=C2\C(=O)Nc3ccc([N+](=O)[O-])cc32)C1=O (stereo not drawn) [4-Ethyl-4-hydroxy-7-[5-nitro-2-oxo-1,2-dihydro-indol-(3E)-ylidene]-1,4,7,8-tetrahydro-pyrano[3,4-f]indolizine-3,6,10-trione] | < 4.00 |
| CC[C@@]1(O)C(=O)OCc2c1cc1n(c2=O)C/C(=C2\C(=O)Nc3ccccc32)C1=O [(S)-4-Ethyl-4-hydroxy-7-[2-oxo-1,2-dihydro-indol-(3E)-ylidene]-1,4,7,8-tetrahydro-pyrano[3,4-f]indolizine-3,6,10-trione] | < 4.00 |
| CCC1(O)C(=O)OCc2c1cc1n(c2=O)C/C(=C2\C(=O)Nc3cc4c(cc32)OCCO4)C1=O (stereo not drawn) [4-Ethyl-4-hydroxy-7-[7-oxo-2,3,6,7-tetrahydro-[1,4]dioxino[2,3-f]indol-(8E)-ylidene]-1,4,7,8-tetrahydro-pyrano[3,4-f]indolizine-3,6,10-trione] | 4.53 |
| CC[C@]1(O)C(=O)OCc2c1cc1n(c2=O)C/C(=C2\C(=O)Nc3cc(OC(F)(F)F)ccc32)C1=O [(R)-4-Ethyl-4-hydroxy-7-[2-oxo-6-trifluoromethoxy-1,2-dihydro-indol-(3E)-ylidene]-1,4,7,8-tetrahydro-pyrano[3,4-f]indolizine-3,6,10-trione] | < 4.00 |
| CC[C@]1(O)C(=O)OCc2c1cc1n(c2=O)C/C(=C2\C(=O)Nc3c(Cl)cccc32)C1=O [(R)-7-[7-Chloro-2-oxo-1,2-dihydro-indol-(3E)-ylidene]-4-ethyl-4-hydroxy-1,4,7,8-tetrahydro-pyrano[3,4-f]indolizine-3,6,10-trione] | < 4.00 |
| CC[C@]1(O)C(=O)OCc2c1cc1n(c2=O)C/C(=C2\C(=O)Nc3ccc(Br)cc32)C1=O [(R)-7-[5-Bromo-2-oxo-1,2-dihydro-indol-(3E)-ylidene]-4-ethyl-4-hydroxy-1,4,7,8-tetrahydro-pyrano[3,4-f]indolizine-3,6,10-trione] | < 4.00 |
| CCC1(O)C(=O)OCc2c1cc1n(c2=O)C/C(=C2\C(=O)Nc3c2cc(F)c(F)c3F)C1=O (stereo not drawn) [4-Ethyl-4-hydroxy-7-[5,6,7-trifluoro-2-oxo-1,2-dihydro-indol-(3E)-ylidene]-1,4,7,8-tetrahydro-pyrano[3,4-f]indolizine-3,6,10-trione] | < 4.00 |
| CCC1(O)C(=O)OCc2c1cc1n(c2=O)C/C(=C2\C(=O)N(C)c3ccccc32)C1=O (stereo not drawn) [4-Ethyl-4-hydroxy-7-[1-methyl-2-oxo-1,2-dihydro-indol-(3E)-ylidene]-1,4,7,8-tetrahydro-pyrano[3,4-f]indolizine-3,6,10-trione] | < 4.00 |
| CC[C@]1(O)C(=O)OCc2c1cc1n(c2=O)C/C(=C2\C(=O)Nc3cc(SC)ccc32)C1=O [(R)-4-Ethyl-4-hydroxy-7-[6-methylsulfanyl-2-oxo-1,2-dihydro-indol-(3E)-ylidene]-1,4,7,8-tetrahydro-pyrano[3,4-f]indolizine-3,6,10-trione] | < 4.00 |
| CC[C@@]1(O)C(=O)OCc2c1cc1n(c2=O)C/C(=C2\C(=O)Nc3ccc(F)cc32)C1=O [(S)-4-Ethyl-7-[5-fluoro-2-oxo-1,2-dihydro-indol-(3E)-ylidene]-4-hydroxy-1,4,7,8-tetrahydro-pyrano[3,4-f]indolizine-3,6,10-trione] | < 4.00 |
| CC[C@]1(O)C(=O)OCc2c1cc1n(c2=O)C/C(=C2\C(=O)Nc3cc(F)c(F)cc32)C1=O [(R)-7-[5,6-Difluoro-2-oxo-1,2-dihydro-indol-(3E)-ylidene]-4-ethyl-4-hydroxy-1,4,7,8-tetrahydro-pyrano[3,4-f]indolizine-3,6,10-trione] | 5.89 |
| CC[C@]1(O)C(=O)OCc2c1cc1n(c2=O)C/C(=C2\C(=O)Nc3ccc(C)cc32)C1=O [(R)-4-Ethyl-4-hydroxy-7-[5-methyl-2-oxo-1,2-dihydro-indol-(3E)-ylidene]-1,4,7,8-tetrahydro-pyrano[3,4-f]indolizine-3,6,10-trione] | 5.74 |
| CC[C@]1(O)C(=O)OCc2c1cc1n(c2=O)C/C(=C2\C(=O)Nc3ccc(I)cc32)C1=O [(R)-4-Ethyl-4-hydroxy-7-[5-iodo-2-oxo-1,2-dihydro-indol-(3E)-ylidene]-1,4,7,8-tetrahydro-pyrano[3,4-f]indolizine-3,6,10-trione] | 4.92 |
| CC[C@]1(O)C(=O)OCc2c1cc1n(c2=O)C/C(=C2\C(=O)Nc3c2cc(C)cc3[N+](=O)[O-])C1=O [(R)-4-Ethyl-4-hydroxy-7-[5-methyl-7-nitro-2-oxo-1,2-dihydro-indol-(3E)-ylidene]-1,4,7,8-tetrahydro-pyrano[3,4-f]indolizine-3,6,10-trione] | < 4.00 |
